Experimental data taken from the NIST ThermoML archive (doi:10.1021/je8004112).
Numbers after ± are expanded uncertainties.

What was measured:
[1] = Ring tensiometer
[2] = xn = mol fraction of the nth substance listed; conditions: Ring tensiometer

C1CCCCC1 [cyclohexane]
[1]
Conditions	surface tension liquid-gas [mN/m]
293.15 K	25.06 ± 0.39
298.15 K	24.45 ± 0.38
303.15 K	23.87 ± 0.38
308.15 K	23.21 ± 0.37
313.15 K	22.71 ± 0.36
318.15 K	22.05 ± 0.36
323.15 K	21.45 ± 0.35

CCCCCCCCCCCC [dodecane]
[1]
Conditions	surface tension liquid-gas [mN/m]
293.15 K	24.28 ± 0.38
298.15 K	23.84 ± 0.38
303.15 K	23.38 ± 0.37
308.15 K	22.98 ± 0.36
313.15 K	22.56 ± 0.36
318.15 K	22.14 ± 0.35
323.15 K	21.71 ± 0.35

CCCCCCC [heptane]
[1]
Conditions	surface tension liquid-gas [mN/m]
293.15 K	20.05 ± 0.33
298.15 K	19.54 ± 0.32
303.15 K	19.1 ± 0.32
308.15 K	18.58 ± 0.31
313.15 K	18.08 ± 0.3
318.15 K	17.6 ± 0.3
323.15 K	17.06 ± 0.29

CCCCCC [hexane]
[1]
Conditions	surface tension liquid-gas [mN/m]
293.15 K	18.56 ± 0.31
298.15 K	18.03 ± 0.3
303.15 K	17.44 ± 0.3
308.15 K	16.92 ± 0.29
313.15 K	16.38 ± 0.28

CCCCCCCCC [nonane]
[1]
Conditions	surface tension liquid-gas [mN/m]
293.15 K	23.04 ± 0.37
298.15 K	22.49 ± 0.36
303.15 K	22.04 ± 0.35
308.15 K	21.49 ± 0.35
313.15 K	20.94 ± 0.34
318.15 K	20.47 ± 0.33
323.15 K	19.98 ± 0.33

CCCCCCC [heptane] + OC1CCCCC1
[2], x1 = 1
Conditions	surface tension liquid-gas [mN/m]
293.15 K	20.05 ± 0.33
298.15 K	19.54 ± 0.32
303.15 K	19.1 ± 0.32
308.15 K	18.58 ± 0.31
313.15 K	18.08 ± 0.3
318.15 K	17.6 ± 0.3
323.15 K	17.06 ± 0.29

OC1CCCCC1 [cyclohexanol] + C1CCCCC1
surface tension liquid-gas [mN/m], [2]
Conditions	x2 = 0	x2 = 0.005	x2 = 0.009	x2 = 0.013	x2 = 0.023	x2 = 0.031	x2 = 0.044	x2 = 0.07
293.15 K	33.15 ± 0.49	31.44 ± 0.69	30.93 ± 0.5	30.73 ± 0.47	30.42 ± 0.46	30.26 ± 0.46	30.12 ± 0.46	29.62 ± 0.45
298.15 K	32.74 ± 0.49	31 ± 0.69	30.54 ± 0.49	30.32 ± 0.46	29.99 ± 0.46	29.8 ± 0.45	29.62 ± 0.45	29.15 ± 0.44
303.15 K	32.35 ± 0.48	30.55 ± 0.68	30.17 ± 0.48	29.88 ± 0.46	29.57 ± 0.45	29.38 ± 0.45	29.16 ± 0.44	28.65 ± 0.44
308.15 K	31.91 ± 0.48	30.12 ± 0.67	29.77 ± 0.48	29.49 ± 0.45	29.15 ± 0.45	28.93 ± 0.44	28.65 ± 0.44	28.18 ± 0.43
313.15 K	31.58 ± 0.47	29.73 ± 0.68	29.4 ± 0.48	29.06 ± 0.45	28.76 ± 0.44	28.48 ± 0.44	28.26 ± 0.43	27.75 ± 0.43
318.15 K	31.13 ± 0.47	29.26 ± 0.66	29 ± 0.46	28.67 ± 0.44	28.34 ± 0.44	28.07 ± 0.43	27.78 ± 0.43	27.27 ± 0.42
323.15 K	30.78 ± 0.46	28.88 ± 0.66	28.63 ± 0.46	28.3 ± 0.44	27.91 ± 0.43	27.66 ± 0.43	27.35 ± 0.42	26.82 ± 0.42

OC1CCCCC1 [cyclohexanol]
[1]
Conditions	surface tension liquid-gas [mN/m]
293.15 K	33.15 ± 0.49
298.15 K	32.74 ± 0.49
303.15 K	32.35 ± 0.48
308.15 K	31.91 ± 0.48
313.15 K	31.58 ± 0.47
318.15 K	31.13 ± 0.47
323.15 K	30.78 ± 0.46

CCCCCCCCC [nonane] + OC1CCCCC1
[2], x1 = 1
Conditions	surface tension liquid-gas [mN/m]
293.15 K	23.04 ± 0.37
298.15 K	22.49 ± 0.36
303.15 K	22.04 ± 0.35
308.15 K	21.49 ± 0.35
313.15 K	20.94 ± 0.34
318.15 K	20.47 ± 0.33
323.15 K	19.98 ± 0.33
